Molecules are shown by their SMILES. Values after ≈ are worked out from the molar mass of the structure shown. Where two headings read alike, the source gives them in different places. Some results are limits rather than exact numbers.

The subject of one data set is herpes simplex virus. As to conditions: cited from earlier work.
Data set [1] relates to oral or genital herpes simplex virus disease. As to conditions: cited from earlier work.
The test system of data set [2] is skin. Conditions: in vivo. As to the method:
This rash, however, usually disappears shortly thereafter with no ill effects. Annals of the New York Academy of Sciences, […]. S. W. Jacob, E. E. Rosenhaum and D. C. Wood, Eds., Vol. 1 Dimethyl Sulfoxide 99, (marcel Depper, Inc., New York, N.Y. 1971); and Annals of the New York Academy of Sciences, Vol. 243 (1975). In the present invention DMSO is diluted to 70% with demineralized water before ara-A is added.

The next data set deals with animals and humans. As to conditions: cited from earlier work.
In data set [3] the test system is skin. Conditions: applied to the skin; cited from earlier work.
For data set [4], the system named is interstitial spaces and cell walls. Conditions: not told; cited from earlier work.
Another data set in a line: solubility. The class given is physicochemical. As to conditions: organic solvent or mixture; DMSO solvent system; read-out: concentration achieved using DMSO as the solvent system. As to the method: By using DMSO as the solvent system, it is possible to achieve a concentration of 10 mg/ml or greater. DMSO transports the ara-A directly into the virus infected cell where active viral replication is occurring. The drug interfers with viral DNA synthesis causing inhibition of viral maturation.
DMSO serves two purposes in enhancing the therapeutic action of ara-A. First, DMSO allows a concentration of ara-A that is more than 20 times greater than can be achieved with water alone. […] It is this percutaneous property of DMSO that is apparently responsible for the extraordinary effectiveness of this medication.

In data set [5] the test system is man. Kind of data set: toxicity and side effects in man. The class given is in vivo. As to conditions: average 150 pound man; converted from oral LD50 in rats and mice. As to the method:
Regarding toxicity or other side effects on the patient, extensive pharmacology and toxicity studies ara-A have been carried out in animals and in man. […] This dose level indicates a low order of toxicity to a single parenteral dose. The acute oral LD50 in both rats and mice is greater than 5000 mg/kg. This amount would be equivalent to more than […] in an average 150 pound person. […] In the form used in the present invention and with treatment by topical application, it is highly unlikely that any toxic side effects of ara-A would be observed.

The format of data set [6] is physicochemical. The source says: There are no special procedures involved in the preparation of the antiviral composition of the present invention. The demineralized water and DMSO can be mixed and the ara-A (and benzocaine if used) dissolved in the DMSO and water solution. The ara-A can be added to the pure DMSO, and water added last. When water and DMSO are mixed, the solution becomes warm because there is a positive heat of solution. […] Ara-A can be recovered from the DMSO and water solution virtually 100 percent as unchanged ara-A.

The test system of a further data set is DNA viruses. Conditions: in vitro and in vivo (animal models or man); cited from earlier work.
A further data set has as its system varicella-zoster virus. As to conditions: in vitro and in vivo (animal models or man); cited from earlier work.
The test system of another data set is Epstein-Barr (E-B) virus. As to conditions: in vitro and in vivo (animal models or man); cited from earlier work.
For a further data set, the system named is vaccinia virus. As to conditions: in vitro and in vivo (animal models or man); cited from earlier work.
The test system of another data set is cytomegalovirus. As to conditions: in vitro and in vivo (animal models or man); cited from earlier work.
Another data set has as its system DNA polymerase. As to conditions: cited from earlier work.
For data set [7] the following is noted: cited from earlier work.
The subject of the next data set is mice. As to conditions: cited from earlier work.
The test system of the next data set is rats. Conditions: cited from earlier work.
Data set [8] has as its system man. Conditions: cited from earlier work.
Data set [9] deals with DNA viruses, including herpes simplex. As to conditions: combined with dimethyl sulfoxide (DMSO); cited from earlier work.
In data set [10] the test system is antiviral activity of ara-A. Kind of data set: effect of benzocaine added to the medication on antiviral activity of ara-A. Conditions: benzocaine in the medication. The source says:
The medication of the present invention has been prepared and used both ways.

In a further data set the test system is patient. Kind of data set: effect of benzocaine in DMSO on the patient. The class given is in vivo. As to conditions: administered in DMSO.

Turning to `Nc1nc2c(ncn2COCCO)c(=O)[nH]1` [acyclovir], in the data set on herpes simplex virus, the “destruction of herpes simplex virus in a laboratory setting” value (“destruction of herpes simplex virus” below) is recorded as “will destroy the herpes simplex virus”. In data set [1], the “success in combating oral or genital herpes simplex virus disease in a clinical setting” value (“success” for short) is reported as “none of these antiviral agents have been successful”.
As to `C[S+](C)[O-]` [DMSO, dimethyl sulfoxide], the “skin irritation at 70% DMSO” value in the data set with skin [2] is recorded as “usually nonirritating to normal skin”. In the data set with animals and humans, the “toxicity of DMSO” value was “essentially nontoxic”. Moreover, in the data set with skin [3], the “skin reaction to undiluted DMSO” value is “sometimes may cause an itching or burning sensation with redness or a rash”. For the same molecule, in [4], the “permeation of interstitial spaces and cell walls” value was “unique ability of permeating the interstitial spaces and cell walls”.
Take `NC(=O)c1ncn([C@@H]2O[C@H](CO)[C@@H](O)[C@H]2O)n1` [ribavirin]: the “destruction of herpes simplex virus” value in the data set on herpes simplex virus is reported as “will destroy the herpes simplex virus”. In data set [1], the “success” value was “none of these antiviral agents have been successful”.
With `O=C(O)CP(=O)(O)O` [phosphonacetic acid], the “destruction of herpes simplex virus” value in the data set on herpes simplex virus is on record as “will destroy the herpes simplex virus”. Also, the “success” value in data set [1] is given as “none of these antiviral agents have been successful”.
In the case of `Nc1ncnc2c1ncn2[C@@H]1O[C@H](CO)[C@@H](O)[C@@H]1O` [ara-A, adenine-9-beta-D-arabinofuranoside], in the data set “solubility”, the solubility is at least 10000 µg/mL. Moreover, the “amount equivalent to the acute oral LD50 in an average 150 pound person” value with man [5] is reported as “more than 750 grams”. Moreover, in data set [6] (from the DMSO and water solution), the “recovery of unchanged ara-A” value is around 100%. In addition, the “chemical reaction between ara-A and DMSO” value in data set [6] (under the conditions of preparation) is “no chemical reaction between ara-A and DMSO”. Besides, in the data set with herpes simplex virus, the “antiviral activity against the herpes simplex virus” value is “effective antiviral agent against the herpes simplex virus”. Further, the “destruction of herpes simplex virus” value with herpes simplex virus is given as “will destroy the herpes simplex virus”. Moreover, the “success” value in data set [1] was “none of these antiviral agents have been successful”. Also, in data set [1] (ointment form (ocular herpes) or infusion for 12 to 24 hours (herpes encephalitis)), the “effectiveness against oral or genital herpes” value is “Neither of these treatments are effective against oral or genital herpes”. Besides, the “activity against a broad spectrum of DNA viruses” value in the data set with DNA viruses is reported as “active”. Moreover, in the data set with varicella-zoster virus, the “activity against varicella-zoster virus” value was “active”. Further, in the data set on Epstein-Barr (E-B) virus, the “activity against Epstein-Barr virus” value is listed as “active”. In the data set on vaccinia virus, the “activity against vaccinia virus” value is reported as “active”. Also, in the data set with cytomegalovirus, the activity against cytomegalovirus result is reported as “active”. The “inhibition of DNA polymerase” value with DNA polymerase is listed as “inhibits the enzyme DNA polymerase”. Besides, the solubility in water was 450 µg/mL (≈ 1.68 mM) in [7] (25C) and “highly insoluble in water” in [7]. Besides, the “acute oral LD50” value in the data set with mice and with rats was “greater than 5000 mg/kg” throughout. The “side effects of massive acute overdosage” value in the data set with man [8] (intravenous form, massive acute overdosage) was “without any serious side effect”. In addition, in the data set with man [8] (topical application, some cases), the “redness and irritation after topical application” value is “redness and slight irritation”. In the data set with man [8] (topical application), the “toxicity through topical application” value is recorded as “not possible to demonstrate toxicity through topical application”.
For `O=c1[nH]c(=O)n([C@H]2C[C@H](O)[C@@H](CO)O2)cc1I` [IdU, 5-iododexyuridine], in data set [9], the “clearing of skin lesions” value is given as “purportedly cleared up skin lesions” and the prevention of recurrence entry was “prevent recurrence”.
As to `O=CC[C@@H](O)[C@H](O)[C@H](O)CO` [2-deoxy-d-glucose], the “destruction of herpes simplex virus” value with herpes simplex virus is listed as “will destroy the herpes simplex virus”. The “success” value in data set [1] was “none of these antiviral agents have been successful”.
Consider `CCOC(=O)c1ccc(N)cc1` [benzocaine], for which, in [10], the “effect of benzocaine on antiviral activity of ara-A” value is on record as “does not impair the antiviral activity of ara-A”. Moreover, the “deleterious effect of benzocaine on the patient” value in the data set with patient is on record as “Nor does the benzocaine appear to have any deleterious affect on the patient”.

These data come from patent publication US4499084A, “Ara-A Antiviral composition and method of administering the same” (priority 1983, dated 1985).
